# Source: patent publication US7427627B2, “N-(4-(4-methylthiazol-5-yl) pyrimidin-2-yl)-N-phenylamines as antiproliferative compounds” (Cyclacel Limited, priority 2001, dated 2008)
# Read-outs that look alike come from different tables or passages of the source.
# Experiments:
# H1299 = experiment: 72-h MTT assay, H1299; assay type: cell-based; conditions: Homo sapiens, NCI-H1299, 72 h, read-out: 72-h MTT IC50 H1299; Table 3; Lung
# Experimental: (§1) The compounds from the examples above were subjected to a standard cellular proliferation assay using human tumour cell lines obtained from the ATCC (American Type Culture Collection, 10801 University Boulevard, Manessas, Va. 20110-2209, USA). Standard 72-h MTT (thiazolyl blue; 3-[4,5-dimethylthiazol-2-yl]-2,5-diphenyltetrazolium bromide) assays were performed (Haselsberger, K.; Peterson, D. C.; Thomas, D. G.; Darling, J. L. Anti Cancer Drugs 1996, 7, 331-8; Loveland, B. E.; Johns, T. G.; Mackay, I. R.; Vaillant, F.; Wang, Z. X.; Hertzog, P. J. Biochemistry International 1992, 27, 501-10). In short: cells were seeded into 96-well plates according to doubling time and incubated overnight at 37° C. Test compounds were made up in DMSO and a 1/3 dilution series prepared in 100 μL cell media, added to cells (in triplicates) and incubated for 72 ho at 37° C. MTT was made up as a stock of 5 mg/mL in cell media and filter-sterilised. Media was removed from cells followed by a wash with 200 μL PBS. MTT solution was then added at 20 μL per well and incubated in the dark at 37° C. for 4 h. MTT solution was removed and cells again washed with 200 μL PBS. MTT dye was solubilised with 200 μL per well of DMSO with agitation.
# WI38 = experiment: 72-h MTT assay, WI38; assay type: cell-based; conditions: Homo sapiens, WI-38, 72 h, read-out: 72-h MTT IC50 WI38; Table 3; Foetal lung (non-transformed)
# Experimental: as §1
# Saos-2 = experiment: 72-h MTT cytotoxicity assay, Saos-2; assay type: cell-based; conditions: Homo sapiens
# Experimental: as §1
# tumour cells = experiment: 72-h MTT assay, mean over tumour cell lines; assay type: cell-based; conditions: Homo sapiens, Table 3
# Experimental: as §1
# CDK2/cyclin E = target: T1, CDK2/cyclin E (Homo sapiens, UniProt P24941); experiment: Kinase assay CDK2/cyclin E; assay type: biochemical; conditions: Table 1; read-out: Kinase inhibition, IC50 (μM) CDK2/E
# T1 construct: His6
# HT29 = experiment: 72-h MTT cytotoxicity assay, HT29; assay type: cell-based; conditions: Homo sapiens
# Experimental: as §1
# Messa = experiment: 72-h MTT assay, Messa; assay type: cell-based; conditions: Homo sapiens, MES-SA, read-out: 72-h MTT IC50 Messa, Table 3, Uterine
# Experimental: as §1
# SJSA-1 = experiment: 72-h MTT assay, SJSA-1; assay type: cell-based; conditions: Homo sapiens, SJSA-1, 72 h, read-out: 72-h MTT IC50 SJSA-1; Table 3; Osteogenic sarcoma
# Experimental: as §1
# SK-N-MC = experiment: 72-h MTT assay, SK-N-MC; assay type: cell-based; conditions: Homo sapiens, read-out: 72-h MTT IC50 SK-N-MC, Table 3, Neuroblastoma
# Experimental: as §1
# Hela = experiment: 72-h MTT assay, Hela; assay type: cell-based; conditions: Homo sapiens, read-out: 72-h MTT IC50 Hela, Table 3, Cervix
# Experimental: as §1
# AGS = experiment: 72-h MTT assay, AGS; assay type: cell-based; conditions: Homo sapiens, read-out: 72-h MTT IC50 AGS, Table 3, Gastric adenocarcinoma
# Experimental: as §1
# CDK4/cyclin D1 = CDK4/cyclin D1 (Homo sapiens, UniProt P11802); experiment: Kinase assay CDK4/cyclin D1;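 further: Enzyme: His6-tagged recombinant human CDK4 produced in baculovirus-infected Sf9 insect cells and purified by metal-chelate chromatography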
# Hs27 = experiment: 72-h MTT assay, Hs27; assay type: cell-based; conditions: Homo sapiens, HS27, 72 h, read-out: 72-h MTT IC50 Hs27; Table 3; Foreskin fibroblast (non-transformed)
# Experimental: as §1
# SKUT-1B = experiment: 72-h MTT assay, SKUT-1B; assay type: cell-based; conditions: Homo sapiens, Skut1B, read-out: 72-h MTT IC50 SKUT-1B, Table 3, Leiomyosarcoma
# Experimental: as §1
# CCRF-CEM = experiment: 72-h MTT assay, CCRF-CEM; assay type: cell-based; conditions: Homo sapiens, read-out: 72-h MTT IC50 CCRF-CEM, Table 3, Leukaemia
# Experimental: as §1
# HCT-116 = experiment: 72-h MTT assay, HCT-116; assay type: cell-based; conditions: Homo sapiens, HCT-116, 72 h, read-out: 72-h MTT IC50 HCT-116; Table 3; Colon
# Experimental: as §1
# Lovo = experiment: 72-h MTT assay, Lovo; assay type: cell-based; conditions: Homo sapiens, read-out: 72-h MTT IC50 Lovo, Table 3, Colon
# Experimental: as §1
# SKUT-1 = experiment: 72-h MTT assay, SKUT-1; assay type: cell-based; conditions: Homo sapiens, SK-UT-1, 72 h, read-out: 72-h MTT IC50 SKUT-1; Table 3; Leiomyosarcoma
# Experimental: as §1
# MCF-7 = experiment: 72-h MTT assay, MCF-7; assay type: cell-based; conditions: Homo sapiens, MCF7, 72 h, read-out: 72-h MTT IC50 MCF-7; Table 3; Breast
# Experimental: as §1
# K562 = experiment: 72-h MTT assay, K562; assay type: cell-based; conditions: Homo sapiens, K562, 72 h, read-out: 72-h MTT IC50 K562; Table 3; Chronic myelogenous leukaemia
# Experimental: as §1
# HL60 = experiment: 72-h MTT assay, HL60; assay type: cell-based; conditions: Homo sapiens, HL-60, 72 h, read-out: 72-h MTT IC50 HL60; Table 3; Promyelocytic leukaemia
# Experimental: as §1
# Messa-Dx5 = experiment: 72-h MTT assay, Messa-Dx5; assay type: cell-based; conditions: Homo sapiens, MES-SA/Dx5, 72 h, read-out: 72-h MTT IC50 Messa-Dx5; Table 3; Uterine
# Experimental: as §1
# DU-145 = experiment: 72-h MTT assay, DU-145; assay type: cell-based; conditions: Homo sapiens, DU-145, 72 h, read-out: 72-h MTT IC50 DU-145; Table 3; Prostate
# Experimental: as §1
# A549 = experiment: 72-h MTT cytotoxicity assay, A549; assay type: cell-based, human; conditions: Homo sapiens
# Experimental: In short: cells were seeded into 96-well plates according to doubling time and incubated overnight at 37° C. Test compounds were made up in DMSO and a 1/3 dilution series prepared in 100 μL cell media, added to cells (in triplicates) and incubated for 72 ho at 37° C. MTT was made up as a stock of 5 mg/mL in cell media and filter-sterilised. Media was removed from cells followed by a wash with 200 μL PBS. MTT solution was then added at 20 μL per well and incubated in the dark at 37° C. for 4 h. MTT solution was removed and cells again washed with 200 μL PBS. MTT dye was solubilised with 200 μL per well of DMSO with agitation.
# IMR-90 = experiment: 72-h MTT assay, IMR-90; assay type: cell-based; conditions: Homo sapiens, IMR-90, 72 h, read-out: 72-h MTT IC50 IMR-90; Table 3; Foetal lung fibroblast (non-transformed)
# Experimental: as §1
# Hacat = experiment: 72-h MTT assay, Hacat; assay type: cell-based; conditions: Homo sapiens, read-out: 72-h MTT IC50 Hacat, Table 3, Skin keratinocytes
# Experimental: as §1
# nci-H460 = experiment: 72-h MTT assay, nci-H460; assay type: cell-based; conditions: Homo sapiens, NCI-H460, 72 h, read-out: 72-h MTT IC50 nci-H460; Table 3; Lung
# Experimental: as §1
# polo-like kinase 1 = polo-like kinase 1 (Homo sapiens, UniProt P53350); experiment: Kinase specificity assay Plk1; assay type: biochemical; conditions: Table 2
# protein kinase C α = target: T2, protein kinase C α (Homo sapiens, UniProt P17252); experiment: Kinase specificity assay PKCα; assay type: biochemical; conditions: Table 2
# T2 construct: His6
# Experimental: PKCα kinase activity may be measured by the incorporation of radio-labeled phosphate in Histone 3, as described. The reaction mixture (total volume 65 μl) consist of 50 mM Tris-HCl, 1 mM Calcium acetate, 3 mM DTT, 0.03 mg/ml Phosphatidylserine, 2.4 μg/ml PMA, 0.04% NP40, 12 mM Mg/Cl, purified PKCα-100 ng, Histone 3, 0.2 mg/ml, 100 μM ATP, 0.2 μCi [γ-^32P]-ATP. The reaction is carried over 15 min at 37° C. in microplate shaker and is stopped by adding 10 μl 75 mM orthophosphoric acid and placing the plate on ice. 50 μl of the reaction mixture is transferred onto P81 filterplate and after washing off the free radioactive phosphate (3 times with 200 μl 75 mM orthophosphoric acid per well) 50 μl of scintillation liquid (Microscint 40) were added to each well and the radioactivity is measured on Scintillation counter (Topcount, HP).
# Ableson tyrosine kinase = Ableson tyrosine kinase (Homo sapiens, UniProt P00519); experiment: Kinase specificity assay Abl; assay type: biochemical; conditions: Table 2
# [1] = target: CDK7-cyclin H-MAT 1 complex (Homo sapiens, UniProt P50613); experiment: Kinase specificity assay CDK7/H; assay type: biochemical; conditions: Table 2
# [2] = target: calmodulin-dependent kinase II; conditions: read-out: Kinase specificity IC50 Cam-KII; Table 2
# [3] = target: p70 ribosomal protein S6 kinase (Homo sapiens, UniProt P23443); experiment: Kinase specificity assay p70-S6K; assay type: biochemical; conditions: Table 2
# [4] = target: extracellular-signal-regulated kinase 2 (Homo sapiens, UniProt P28482); experiment: Kinase specificity assay ERK-2; assay type: biochemical; conditions: Table 2
# [5] = target: glycogen synthase kinase 3β (Homo sapiens, UniProt P49841); experiment: Kinase specificity assay GSK3β; assay type: biochemical; conditions: Table 2
# [6] = target: stress-activated protein kinase 2a (Homo sapiens, UniProt Q16539); experiment: Kinase specificity assay SAPK2a; assay type: biochemical; conditions: Table 2
# protein kinase B = protein kinase B (Homo sapiens, UniProt P31749); experiment: Kinase specificity assay Akt/PKB; assay type: biochemical; conditions: Table 2
# [7] = SAOS-2, 72 h, read-out: 72-h MTT IC50 Saos-2, Table 3, Bone osteosarcoma
# [8] = SAOS-2, read-out: 72-h MTT in vitro IC50 (μM) Saos-2, Table 1, 72 h
# [9] = HT-29, 72 h, read-out: 72-h MTT IC50 HT29, Table 3, Colon
# [10] = HT-29, read-out: 72-h MTT in vitro IC50 (μM) HT29, Table 1, 72 h
# [11] = A549, 72 h, read-out: 72-h MTT IC50 A549, Table 3, Lung
# [12] = A549, read-out: 72-h MTT in vitro IC50 (μM) A549, Table 1, 72 h
# CDK4/cyclin D1, sequence (P11802 whole entry): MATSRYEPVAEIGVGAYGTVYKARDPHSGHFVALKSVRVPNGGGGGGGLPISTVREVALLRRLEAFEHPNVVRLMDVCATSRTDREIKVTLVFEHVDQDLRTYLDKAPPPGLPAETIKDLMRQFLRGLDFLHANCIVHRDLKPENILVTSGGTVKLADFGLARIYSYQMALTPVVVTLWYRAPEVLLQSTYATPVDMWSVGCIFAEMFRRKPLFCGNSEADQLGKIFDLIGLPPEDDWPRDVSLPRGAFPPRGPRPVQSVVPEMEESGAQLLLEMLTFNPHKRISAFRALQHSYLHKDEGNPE
# CDK4/cyclin D1, sequence (P24385 whole entry partner): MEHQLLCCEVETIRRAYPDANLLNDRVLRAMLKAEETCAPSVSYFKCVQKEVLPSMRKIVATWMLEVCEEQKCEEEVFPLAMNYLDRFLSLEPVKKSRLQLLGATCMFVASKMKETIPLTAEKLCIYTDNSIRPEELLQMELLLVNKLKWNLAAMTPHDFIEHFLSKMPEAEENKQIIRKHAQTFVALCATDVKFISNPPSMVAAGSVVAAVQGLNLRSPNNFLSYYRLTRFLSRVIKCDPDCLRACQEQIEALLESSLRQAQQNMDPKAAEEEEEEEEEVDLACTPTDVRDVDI
# protein kinase B, sequence (P31749 whole entry): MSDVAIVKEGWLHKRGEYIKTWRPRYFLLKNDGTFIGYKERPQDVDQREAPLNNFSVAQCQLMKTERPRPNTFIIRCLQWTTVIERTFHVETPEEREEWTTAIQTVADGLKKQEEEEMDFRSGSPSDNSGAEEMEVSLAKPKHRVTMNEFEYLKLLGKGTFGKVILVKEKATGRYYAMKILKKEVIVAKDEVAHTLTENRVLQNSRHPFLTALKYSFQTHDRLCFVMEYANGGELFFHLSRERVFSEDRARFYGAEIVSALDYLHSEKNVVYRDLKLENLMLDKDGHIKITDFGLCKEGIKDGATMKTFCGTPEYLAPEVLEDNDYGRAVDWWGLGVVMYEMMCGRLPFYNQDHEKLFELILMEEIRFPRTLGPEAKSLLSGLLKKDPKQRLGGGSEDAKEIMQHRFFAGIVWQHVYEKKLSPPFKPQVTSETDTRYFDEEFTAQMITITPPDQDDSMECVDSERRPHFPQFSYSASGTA
# extracellular-signal-regulated kinase 2, sequence (P28482 whole entry): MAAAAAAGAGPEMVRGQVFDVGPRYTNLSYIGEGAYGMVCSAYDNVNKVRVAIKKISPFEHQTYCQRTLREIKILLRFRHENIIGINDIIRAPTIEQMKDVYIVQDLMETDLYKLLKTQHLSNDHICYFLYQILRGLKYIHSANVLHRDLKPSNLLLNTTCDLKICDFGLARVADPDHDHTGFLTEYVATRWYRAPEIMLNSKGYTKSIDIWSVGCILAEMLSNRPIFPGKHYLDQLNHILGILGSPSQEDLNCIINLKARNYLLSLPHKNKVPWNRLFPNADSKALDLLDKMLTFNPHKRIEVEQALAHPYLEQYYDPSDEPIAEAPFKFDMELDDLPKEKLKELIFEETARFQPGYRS
# Ableson tyrosine kinase, sequence (P00519 whole entry): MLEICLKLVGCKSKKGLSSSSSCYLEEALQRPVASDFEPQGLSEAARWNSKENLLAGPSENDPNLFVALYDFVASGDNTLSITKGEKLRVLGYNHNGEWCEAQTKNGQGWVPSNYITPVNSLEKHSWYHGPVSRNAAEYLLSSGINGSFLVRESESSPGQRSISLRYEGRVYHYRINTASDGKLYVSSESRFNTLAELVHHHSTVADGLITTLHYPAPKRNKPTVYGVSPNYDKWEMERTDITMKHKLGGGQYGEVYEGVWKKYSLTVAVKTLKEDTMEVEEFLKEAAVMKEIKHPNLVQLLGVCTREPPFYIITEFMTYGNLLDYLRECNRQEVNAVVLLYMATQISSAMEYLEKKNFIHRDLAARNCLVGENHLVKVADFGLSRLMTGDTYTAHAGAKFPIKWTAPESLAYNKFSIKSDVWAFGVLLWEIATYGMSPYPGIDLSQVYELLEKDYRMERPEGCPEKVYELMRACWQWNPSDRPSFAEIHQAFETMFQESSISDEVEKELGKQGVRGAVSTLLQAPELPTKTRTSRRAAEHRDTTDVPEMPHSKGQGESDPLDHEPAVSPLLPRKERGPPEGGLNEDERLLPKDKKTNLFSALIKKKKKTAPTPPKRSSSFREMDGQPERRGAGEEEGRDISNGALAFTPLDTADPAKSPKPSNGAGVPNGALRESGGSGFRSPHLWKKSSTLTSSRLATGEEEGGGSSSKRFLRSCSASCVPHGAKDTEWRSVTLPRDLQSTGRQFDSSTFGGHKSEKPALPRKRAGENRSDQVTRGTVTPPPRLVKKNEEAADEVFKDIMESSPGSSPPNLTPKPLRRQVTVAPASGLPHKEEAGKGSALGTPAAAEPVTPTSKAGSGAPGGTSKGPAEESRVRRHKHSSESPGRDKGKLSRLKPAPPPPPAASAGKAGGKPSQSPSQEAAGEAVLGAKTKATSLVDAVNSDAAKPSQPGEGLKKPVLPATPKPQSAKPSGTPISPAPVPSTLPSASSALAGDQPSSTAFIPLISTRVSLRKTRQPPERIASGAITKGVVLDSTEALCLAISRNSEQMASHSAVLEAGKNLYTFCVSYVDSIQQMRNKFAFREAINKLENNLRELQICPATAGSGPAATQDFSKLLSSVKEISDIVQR
# glycogen synthase kinase 3β, sequence (P49841 whole entry): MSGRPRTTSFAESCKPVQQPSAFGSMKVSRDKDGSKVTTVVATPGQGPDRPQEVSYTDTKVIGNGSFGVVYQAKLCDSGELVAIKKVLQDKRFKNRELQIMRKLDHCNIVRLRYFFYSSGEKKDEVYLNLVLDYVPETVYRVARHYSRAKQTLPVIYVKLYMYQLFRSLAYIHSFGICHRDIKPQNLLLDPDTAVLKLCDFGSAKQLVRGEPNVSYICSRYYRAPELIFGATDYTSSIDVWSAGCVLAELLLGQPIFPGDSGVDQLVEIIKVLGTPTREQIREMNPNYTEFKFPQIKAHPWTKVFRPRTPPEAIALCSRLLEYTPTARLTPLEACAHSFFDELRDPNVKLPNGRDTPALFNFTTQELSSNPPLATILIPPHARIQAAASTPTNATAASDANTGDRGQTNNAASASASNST
# CDK7-cyclin H-MAT 1 complex, sequence (P50613 whole entry): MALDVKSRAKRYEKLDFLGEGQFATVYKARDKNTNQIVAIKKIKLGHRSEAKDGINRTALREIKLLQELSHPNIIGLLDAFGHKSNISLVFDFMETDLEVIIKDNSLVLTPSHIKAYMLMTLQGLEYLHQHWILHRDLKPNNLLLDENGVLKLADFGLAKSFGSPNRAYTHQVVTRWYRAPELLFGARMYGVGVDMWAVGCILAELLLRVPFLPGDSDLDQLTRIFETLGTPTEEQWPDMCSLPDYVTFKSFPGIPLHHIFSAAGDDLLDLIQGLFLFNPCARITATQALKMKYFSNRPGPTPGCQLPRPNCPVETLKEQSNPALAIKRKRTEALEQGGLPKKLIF
# CDK7-cyclin H-MAT 1 complex, sequence (P51946 whole entry partner): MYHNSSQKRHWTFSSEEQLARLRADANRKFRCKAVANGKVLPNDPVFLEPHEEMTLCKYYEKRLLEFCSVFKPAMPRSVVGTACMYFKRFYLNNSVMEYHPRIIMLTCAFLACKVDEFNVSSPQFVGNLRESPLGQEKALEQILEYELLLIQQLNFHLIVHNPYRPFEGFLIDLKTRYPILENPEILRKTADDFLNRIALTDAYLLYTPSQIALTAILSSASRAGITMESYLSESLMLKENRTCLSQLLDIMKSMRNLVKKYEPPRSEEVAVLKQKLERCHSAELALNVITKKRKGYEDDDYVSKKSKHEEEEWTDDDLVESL
# CDK7-cyclin H-MAT 1 complex, sequence (P51948 whole entry partner): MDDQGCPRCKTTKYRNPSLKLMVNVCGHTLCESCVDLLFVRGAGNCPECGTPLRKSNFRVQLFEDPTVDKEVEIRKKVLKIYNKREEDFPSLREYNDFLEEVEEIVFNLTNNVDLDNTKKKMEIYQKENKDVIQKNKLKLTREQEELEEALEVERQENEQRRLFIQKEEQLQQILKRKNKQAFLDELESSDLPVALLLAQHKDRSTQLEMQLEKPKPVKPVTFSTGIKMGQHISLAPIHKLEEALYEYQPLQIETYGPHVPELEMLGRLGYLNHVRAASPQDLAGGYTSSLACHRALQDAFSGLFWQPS
# stress-activated protein kinase 2a, sequence (Q16539 whole entry): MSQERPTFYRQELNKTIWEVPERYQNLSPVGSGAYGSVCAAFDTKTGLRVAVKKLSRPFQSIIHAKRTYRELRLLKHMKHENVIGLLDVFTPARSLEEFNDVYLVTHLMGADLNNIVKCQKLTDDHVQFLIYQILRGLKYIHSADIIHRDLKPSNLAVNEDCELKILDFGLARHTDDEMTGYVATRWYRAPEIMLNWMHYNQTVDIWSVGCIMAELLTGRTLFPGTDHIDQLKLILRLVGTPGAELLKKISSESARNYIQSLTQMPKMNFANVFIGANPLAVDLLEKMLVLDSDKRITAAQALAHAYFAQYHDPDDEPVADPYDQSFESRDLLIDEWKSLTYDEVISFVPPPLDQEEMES
# p70 ribosomal protein S6 kinase, sequence (P23443 24-525): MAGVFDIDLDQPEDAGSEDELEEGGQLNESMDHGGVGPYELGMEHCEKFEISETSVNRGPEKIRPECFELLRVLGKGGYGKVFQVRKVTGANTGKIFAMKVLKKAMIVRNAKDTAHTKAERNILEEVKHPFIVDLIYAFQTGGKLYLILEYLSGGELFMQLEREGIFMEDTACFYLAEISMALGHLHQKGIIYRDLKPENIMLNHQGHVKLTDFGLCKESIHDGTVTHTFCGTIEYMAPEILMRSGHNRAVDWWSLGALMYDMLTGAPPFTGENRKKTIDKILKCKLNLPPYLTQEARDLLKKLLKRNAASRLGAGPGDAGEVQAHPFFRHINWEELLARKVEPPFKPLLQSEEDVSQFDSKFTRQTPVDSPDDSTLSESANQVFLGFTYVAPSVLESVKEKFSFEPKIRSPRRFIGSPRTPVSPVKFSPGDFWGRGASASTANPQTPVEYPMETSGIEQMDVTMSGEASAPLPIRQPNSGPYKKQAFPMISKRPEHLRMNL
SMILES,IC50 (H1299),IC50 (WI38),IC50 (Saos-2; [7]),IC50 (Saos-2; [8]),IC50 (tumour cells),IC50 (CDK2/cyclin E),IC50 (HT29; [9]),IC50 (HT29; [10]),IC50 (Messa),IC50 (SK-N-MC),IC50 (Hela),IC50 (AGS),IC50 (CDK4/cyclin D1),IC50 (Hs27),IC50 (SKUT-1B),IC50 (CCRF-CEM),IC50 (HCT-116),IC50 (Lovo),IC50 (SKUT-1),IC50 (A549; [12]),other results
"Cc1nc(N)sc1-c1ccnc(Nc2ccc(CCO)cc2)n1 [Compound 15, 2-{4-[4-(2-Amino-4-methyl-thiazol-5-yl)-pyrimidin-2-ylamino]-phenyl}-ethanol]",630 nM,> 5000 nM,0.93 µM,2.84 µM,1030 nM,0.43 µM,0.41 µM,3.8 µM,550 nM,580 nM,550 nM,1050 nM,1360 nM,> 5000 nM,390 nM,850 nM,690 nM,230 nM,810 nM,3.04 µM,IC50 (SJSA-1): 1500 nM; IC50 (MCF-7): 4740 nM; IC50 (K562): 1350 nM; IC50 (HL60): 2870 nM; IC50 (Messa-Dx5): 140 nM; IC50 (DU-145): 980 nM; IC50 (A549; [11]): 0.95 µM; IC50 (IMR-90): > 5000 nM; IC50 (Hacat): 730 nM; IC50 (nci-H460): 600 nM
"Cc1nc(N)sc1-c1ccnc(Nc2cccc(Br)c2)n1 [Compound 16, [4-(2-Amino-4-methyl-thiazol-5-yl)-pyrimidin-2-yl]-(3-bromo-phenyl)-amine]",1060 nM,> 5000 nM,0.73 µM,0.81 µM,680 nM,0.09 µM,0.25 µM,0.66 µM,590 nM,420 nM,560 nM,1110 nM,1770 nM,> 5000 nM,300 nM,500 nM,960 nM,210 nM,640 nM,0.82 µM,IC50 (K562): 540 nM; IC50 (HL60): 430 nM; IC50 (Messa-Dx5): 590 nM; IC50 (DU-145): 1750 nM; IC50 (A549; [11]): 1.32 µM; IC50 (IMR-90): > 5000 nM; IC50 (Hacat): 500 nM; IC50 (nci-H460): 280 nM
"Cc1nc(C)c(-c2ccnc(Nc3ccc(N(C)C)c(Cl)c3)n2)s1 [Compound 26, 2-[N-(4-N,N-Dimethylamino-3-chlorophenyl)]-4-(2,4-dimethylthiazol-5-yl)-pyrimidineamine]",,,,0.32 µM,,,,0.15 µM,,,,,,,,,,,,0.29 µM,IC50 (polo-like kinase 1): > 100000 nM; IC50 (protein kinase C α): 24000 nM; IC50 (Ableson tyrosine kinase): 1600 nM; IC50 [1]: 4800 nM; IC50 [2]: 69000 nM; IC50 [3]: 32000 nM; IC50 [4]: 20000 nM; IC50 [5]: 2200 nM; IC50 [6]: 86000 nM; IC50 (protein kinase B): 6300 nM
